Reference: patent US11203773B2, “Designer ribosomes and methods of use thereof for incorporating non-standard amino acids into polypeptides” (Yale University, priority 2016, dated 2021)
Read-outs that look alike come from different tables or passages of the source.

Experiments:
E. coli MetRS [1] = target: T1, E. coli MetRS (Escherichia coli, UniProt P00959); conditions: for kcat (min^−1) or RSA (^32P-ATP formed min^−1 enzyme μM^−1): 25° C., pH 7.0
Description: (§3) Adenylation of α- and β-Amino Acids Catalyzed by E. coli PheRS, GlyRS, MetRS, and GluRS. […] Briefly, assay mixtures (50 μL) assembled at 25° C. contained the requisite α- or β^3-amino acid substrate (between 5 μM and 5 mM) in 100 mM HEPES (pH 7.0) containing 100 mM KCl, 15 mM MgCl2, 2 mM ATP, 0.5 mM NaPPi, and 50 μCi [^32P]-NaPPi). Reactions were initiated upon addition of enzyme (10 nM MetRS, 10 nM PheRS, or 50 nM GlyRS; 100 nM GluRS for reactions with α-Glu or 1.13 μM GluRS for reactions with β^3-Glu), incubated for various times (10 sec to 10 min), and halted by adding a 5 μL reaction aliquot to 100 μL quenching solution (10% charcoal, 0.5% HCl). 50 μL of 200 mM NaPPi in 1.5 N HCl was then added to each quenched reaction to decrease nonspecific binding of pyrophosphate to the charcoal. Each quenched reaction was then filtered through Whatman filter paper (number 3), previously washed with washing solution (200 mM NaPPi in 1 N HCl) using a 96-well BIO-DOT® apparatus (BioRad). Each well of the apparatus was then washed four times with 200 μL aliquots of washing solution (by pipetting washing solution up and down at least 10 times per wash) to minimize nonspecific binding of pyrophosphate to charcoal. Each experimental well was paired with an analogous control well (no-enzyme control) that lacked enzyme; a single membrane contained time points for both α- and β^3-amino acid substrates and all no-enzyme controls. The membrane was allowed to dry and was protected with a sheet of Microseal B adhesive seals (Biorad) prior to exposure to a BAS Storage Phosphor screen. Screens were imaged on a Typhoon 9500FLA biomolecule imager and the signal intensity of each dot was quantified using ImageJ to determine the relative amount of [^32P]-ATP formed as a function of time (Ctime). Each raw value were corrected by subtracting the intensity of the dot corresponding to the appropriate no-enzyme control (Cblank) and the resulting corrected values of Ccorr (representing the relative amounts of ^32P-ATP formed) were plotted as a function of time to determine values of relative ^32P-ATP formed per minute. Those values were divided by the concentration of enzyme used, and the data was plotted as relative specific activity (^32P-ATP formed min^−1×μM^−1 enzyme) and fitted using Prism by performing nonlinear regression using the least squares method and Equation 1 to obtain RSA (relative specific activity) and KM values (Equation 1 and Table 2).
(§4) In Equation 1, v is the apparent relative specific activity (relative ^32P-ATP formed per minute) obtained at each substrate concentration divided by the enzyme concentration, RSA is the relative specific activity, S is the concentration of substrate, and KM is the Michaelis-Menten constant.

E. coli MetRS [2] = target: T1, E. coli MetRS
Description: Aminoacylation of α- and β^3-amino acids. All tRNAs were prepared for aminoacylation by heating ^32P-tRNA (in 100 mM HEPES (pH 7.0)) to 95° C. for 3 min, and adding sufficient aminoacylation buffer (100 mM HEPES (pH 7.0), 100 mM KCl, 15 mM MgCl2) to ensure [^32P-tRNA]=4 μM. This tRNA mixture was allowed to cool at RT for 30 min. […] Equal volumes of the tRNA and amino acid mix were combined, and enzyme was added to initiate the reaction. The final concentration of tRNA after mixing was 2 μM. Reactions were quenched at various time points by mixing 1 μL of the reaction mixture with 4 μL of P1 (Sigma) or S1 (Invitrogen) nuclease solution (0.5 U/μL final prepared from a 10 U/μL stock solution in 10 mM NaOAc (pH 5.0). PEI cellulose TLC plates were run as previously described (Ledoux, et al., Methods, 44:74 (2008)), exposed to a BAS Storage Phosphor Screen, and imaged using a Typhoon FLA9500 biomolecule imager. The intensity of each band was quantified using ImageJ. The sum of the intensities of the bands corresponding to [^32P]-AMP (IAMP) and aminoacyl-[^32P]-AMP (IAA) was set equal to 2 μM, and the concentration of aminoacylated-tRNA at each time point and each enzyme concentration (μM product formed, x) calculated from the equation x=[(IAA×2 μM)/(IAA+IAMP)]. The increase in aminoacyl-^32P-AMP over time was divided by the amount of enzyme used, plotted as a function of substrate concentration and fitted to a hyperbolic equation to obtain kcat and KM values, using Equation 1 and Prism as described for the adenylation reactions. For all aminoacylation reactions, kcat has units of reciprocal time (min^−1).

E. coli MetRS [3] = target: T1, E. coli MetRS; conditions: for krev (apparent rate of deacylation): deacylation of aminoacyl-tRNA, MetRS 500 nM, 25° C.
Description: (§5) Deacylation assays. Large scale (200 μL) aminoacylation reactions were initiated using the conditions described above (iv). The reactions were allowed to proceed for 1 h at 37° C., after which each reaction mixture was phenol/chloroform extracted. In each case, the aminoacylated tRNA product was ethanol precipitated, and the buffer was exchanged using a micro Bio-Spin 6 column (BioRad) following the procedure specified by the manufacturer and 100 mM HEPES (pH 8.0) containing 100 mM KCl. The precise extent of aminoacylation was calculated using the procedure described above; the 2 μM concentration corresponds to total aminoacylated tRNA. Assays were performed at 25° C. in a 50 μL reaction with 2 μM [^32P]-aminoacyl-tRNA in 100 mM HEPES (pH 7.0) containing 100 mM KCl and 15 mM MgCl2.

[4] = system: BL21(DE3) cells expressing 040329 ribosomes along with WT ribosomes; assay: Expression of DHFR in 19/20 minimal media supplemented with amino acid (SDS-PAGE); type: cell-based, E. coli; conditions: 040329 + WT ribosomes, media supplemented with 1 mM of the amino acid
Description: (§1) To evaluate the extent of in vivo β^3-amino acid incorporation, BL21 (DE3) cells were co-transformed via electroporation (vide infra) with two plasmids. […] The other plasmid encoded either the WT rrnb sequence (pLK35-rrnb), the 040329 mutant reported by Hecht (pLK35-040329.rrnb), or the P7A7 mutant (pLK35-P7A7.rrnb) identified during the puromycin sensitivity screen described above.
(§2) ii. β^3-amino acid incorporation. The subsequent protocol for in vivo β^3-amino acid incorporation employed minimal media and was adapted from procedures reported by Tirrell and Cropp (Liu, et al., Bioorg Med Chem Lett, 20:5613 (2010); Mandavi, et al., J Am Chem Soc, 135:2979 (2013)). Briefly, all 5 mL of the co-transformed cells prepared as described above were diluted into 100 mL of LB containing 50 ng/mL of kanamycin and […] of carbenicillin and grown to OD600=1.0, spun down, and then resuspended in 1/10th the original volume of 19/20 minimal media (10.5 g/L M9 salts, 0.1 mM CaCl2, 1 mM MgSO4, 1% glycerol, 100 μM of each amino acid (minus α-Phe), 25 mg/L thiamine, […] carbenicillin, 30 ng/mL kanamycin, 1 mM IPTG) supplemented with 1 mM of α-Phe or a β^3-Phe analog. Cells were grown overnight (18 h) at 37° C. while shaking (200 rpm). The cells were harvested by centrifugation (10 min at 4000×g) and resuspended in lysis buffer (50 mM NaH2PO4, 300 mM NaCl, 10 mM imidazole (pH 8.0)). Lysis was performed by sonication (Branson Sonifier 250) with 5 cycles of 20 s on, 20 s off. Lysed cells were then centrifuged for 20 min at 15000×g. The clarified cell lysate was incubated with Ni-NTA resin (Qiagen) for 1 h while gently rotating at 4° C. The Ni-NTA column was washed with lysis buffer prior to eluting proteins with elution buffer (50 mM NaH2PO4, 300 mM NaCl, 300 mM imidazole (pH 8.0)). Elutions were analyzed with SDS-PAGE to prepare material for in-gel trypsin digestions. Controls included side-by-side growths in (1) unsupplemented 19/20 minimal media, which contains only low levels of α-Phe present (negative control); (2). 19/20 minimal media supplemented with 1 mM α-Phe (positive control) and (3) and 19/20 minimal media supplemented with 1 mM β^3-Gly (negative control; β^3-aa that is not a β^3-Phe analog).

[5] = system: BL21(DE3) cells expressing P7A7 ribosomes along with WT ribosomes; assay: as above; type: cell-based, E. coli; conditions: media supplemented with 1 mM of the amino acid
Description: as §1, §2

[6] = system: BL21(DE3) cells expressing only WT ribosomes; assay: as above; type: cell-based, E. coli; conditions: α-Phe added
Description: as §1, §2

E. coli PheRS [7] = target: T2, E. coli PheRS (Escherichia coli, UniProt P08312); assay: Aminoacylation of 32P-tRNA with α- and β3-amino acids; type: biochemical; set-up: made in house; host or cells: E. coli BL21(DE3)
T2 sequence (P08312 whole entry): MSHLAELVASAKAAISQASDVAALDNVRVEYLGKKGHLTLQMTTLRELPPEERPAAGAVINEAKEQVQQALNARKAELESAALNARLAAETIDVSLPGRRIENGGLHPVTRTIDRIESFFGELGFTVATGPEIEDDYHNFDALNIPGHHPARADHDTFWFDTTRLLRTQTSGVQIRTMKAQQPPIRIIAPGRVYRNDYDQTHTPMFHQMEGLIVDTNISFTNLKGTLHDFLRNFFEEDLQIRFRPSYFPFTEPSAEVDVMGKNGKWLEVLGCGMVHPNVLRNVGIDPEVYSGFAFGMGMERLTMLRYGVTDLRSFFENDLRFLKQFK
T2 sequence (P07395 whole entry partner): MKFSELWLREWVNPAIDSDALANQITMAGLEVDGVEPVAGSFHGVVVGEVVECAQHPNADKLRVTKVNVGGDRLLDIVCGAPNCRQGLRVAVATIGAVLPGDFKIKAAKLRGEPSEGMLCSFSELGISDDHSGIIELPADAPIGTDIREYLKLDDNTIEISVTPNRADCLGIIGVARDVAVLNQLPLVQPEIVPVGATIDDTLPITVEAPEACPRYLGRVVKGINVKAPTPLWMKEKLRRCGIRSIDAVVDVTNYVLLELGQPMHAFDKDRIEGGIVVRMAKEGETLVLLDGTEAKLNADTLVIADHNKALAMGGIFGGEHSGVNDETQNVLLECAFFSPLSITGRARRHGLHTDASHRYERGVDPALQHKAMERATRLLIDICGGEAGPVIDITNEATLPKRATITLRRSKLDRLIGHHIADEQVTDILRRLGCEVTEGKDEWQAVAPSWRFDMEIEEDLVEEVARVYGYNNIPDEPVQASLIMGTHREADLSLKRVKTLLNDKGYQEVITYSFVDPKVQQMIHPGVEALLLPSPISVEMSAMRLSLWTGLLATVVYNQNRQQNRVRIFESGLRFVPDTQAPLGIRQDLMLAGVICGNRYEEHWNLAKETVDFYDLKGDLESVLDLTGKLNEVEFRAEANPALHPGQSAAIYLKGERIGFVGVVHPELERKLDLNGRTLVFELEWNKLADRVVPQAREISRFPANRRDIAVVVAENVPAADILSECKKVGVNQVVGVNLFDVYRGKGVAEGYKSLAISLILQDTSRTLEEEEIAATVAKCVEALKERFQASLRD

E. coli PheRS [8] = target: T2, E. coli PheRS; assay: Deacylation assay of [32P]-aminoacyl-tRNA; type: biochemical; set-up: made in house; host or cells: E. coli BL21(DE3)
Description: as §5

E. coli PheRS [9] = target: T2, E. coli PheRS; assay: Adenylation of α- and β3-amino acids, pyrophosphate exchange assay
Description: as §3, §4

E. coli GluRS [10] = target: T3, E. coli GluRS (Escherichia coli, UniProt P04805); assay: Aminoacylation of 32P-tRNA with α- and β3-amino acids; type: biochemical; set-up: made in house; host or cells: E. coli BL21(DE3)
T3 sequence (P04805 whole entry): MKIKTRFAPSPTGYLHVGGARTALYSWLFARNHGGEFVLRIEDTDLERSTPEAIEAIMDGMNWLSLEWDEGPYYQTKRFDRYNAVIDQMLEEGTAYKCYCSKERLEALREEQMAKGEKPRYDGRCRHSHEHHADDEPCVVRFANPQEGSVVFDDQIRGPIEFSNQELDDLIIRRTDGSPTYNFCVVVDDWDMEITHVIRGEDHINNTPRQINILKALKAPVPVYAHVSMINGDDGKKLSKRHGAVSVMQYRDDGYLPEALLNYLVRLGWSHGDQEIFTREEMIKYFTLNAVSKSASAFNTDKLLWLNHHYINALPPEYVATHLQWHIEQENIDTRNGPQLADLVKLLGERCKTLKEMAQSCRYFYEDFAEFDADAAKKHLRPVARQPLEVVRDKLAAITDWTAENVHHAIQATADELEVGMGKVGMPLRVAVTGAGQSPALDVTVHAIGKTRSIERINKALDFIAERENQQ

E. coli GluRS [11] = target: T3, E. coli GluRS; assay: Deacylation assay of [32P]-aminoacyl-tRNA; type: biochemical; set-up: made in house; host or cells: E. coli BL21(DE3)
Description: as §5

E. coli GluRS [12] = target: T3, E. coli GluRS; assay: Adenylation of α- and β3-amino acids, pyrophosphate exchange assay
Description: as §3, §4

T1 sequence (P00959 whole entry): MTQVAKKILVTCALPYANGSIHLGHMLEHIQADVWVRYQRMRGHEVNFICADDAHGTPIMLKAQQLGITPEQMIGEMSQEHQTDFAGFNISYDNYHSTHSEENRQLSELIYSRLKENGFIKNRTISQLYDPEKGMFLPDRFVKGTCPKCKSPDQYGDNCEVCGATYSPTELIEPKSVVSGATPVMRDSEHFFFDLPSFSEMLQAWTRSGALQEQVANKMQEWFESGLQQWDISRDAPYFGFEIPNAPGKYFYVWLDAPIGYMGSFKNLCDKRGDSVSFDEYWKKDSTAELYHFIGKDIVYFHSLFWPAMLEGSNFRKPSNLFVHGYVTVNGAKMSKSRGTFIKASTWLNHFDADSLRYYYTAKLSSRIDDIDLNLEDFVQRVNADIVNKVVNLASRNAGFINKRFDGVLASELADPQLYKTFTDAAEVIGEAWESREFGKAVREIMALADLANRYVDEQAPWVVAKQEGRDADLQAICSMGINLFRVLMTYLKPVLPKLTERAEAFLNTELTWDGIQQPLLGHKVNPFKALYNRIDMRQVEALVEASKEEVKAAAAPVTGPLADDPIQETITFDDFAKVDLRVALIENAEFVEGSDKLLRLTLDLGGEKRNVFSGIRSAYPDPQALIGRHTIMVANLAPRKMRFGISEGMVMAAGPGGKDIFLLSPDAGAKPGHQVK

CSCC[C@H](N)C(=O)O [α-Met, Methionine]
Ratio (α-/β-) of KM (E. coli MetRS [1]; adenylation): 0.70 ± 0.5 | Ratio (α-/β-) of RSA (E. coli MetRS [1]; adenylation): 1.4 ± 0.2 | Ratio (α-/β-) of kcat/KM (E. coli MetRS [1]; adenylation): 1.98 ± 1.5 | preference for α-Met over β^3-Met (E. coli MetRS [1]; adenylation phase): 2 fold | kcat (min^−1) or RSA (^32P-ATP formed min^−1 enzyme μM^−1) (E. coli MetRS [1]; adenylation): 430 ± 38 ^32P-ATP formed min^−1 enzyme μM^−1 | Ratio (α/β) of KM (E. coli MetRS [2]; aminoacylation): 0.40 ± 0.18 | Ratio (α/β) of kcat (E. coli MetRS [2]; aminoacylation): 6.8 ± 1.3 | Ratio (α/β) of kcat/KM (E. coli MetRS [2]; aminoacylation): 17.0 ± 8.5 | preference (kcat/KM) for α-Met over β^3-Met (E. coli MetRS [2]; complete aminoacylation reaction): 19 fold | krev (apparent rate of deacylation) (E. coli MetRS [3]): 2.1 ± 1.7 min⁻¹ | Ratio (α/β) of krev (E. coli MetRS [3]; deacylation, MetRS): 0.52 ± 0.49

N[C@@H](Cc1ccccc1)C(=O)O [α-Phe, Phenylalanine]
level of DHFR [4]: significant levels | level of DHFR [5]: lower levels | level of DHFR, higher than trace amounts [6]: approximately 8 fold | Ratio (α/β) of KM (E. coli PheRS [7]): 1.7 ± 0.9 | Ratio (α/β) of kcat (E. coli PheRS [7]): 3.7 ± 0.7 | Ratio (α/β) of kcat/KM (E. coli PheRS [7]): 2.2 ± 1.3 | kcat (E. coli PheRS [7]; 2 μM tRNA): 0.0143 ± 0.00183 s⁻¹ | krev (apparent rate of deacylation) (E. coli PheRS [8]; deacylation of aminoacyl-tRNA, PheRS 500 nM, 25° C.): 0.15 ± 0.008 min⁻¹ | Ratio (α/β) of krev (E. coli PheRS [8]; deacylation, PheRS): 0.49 ± 0.05 | Ratio (α-/β-) of KM (E. coli PheRS [9]): 0.18 ± 0.11 | Ratio (α-/β-) of RSA (E. coli PheRS [9]): 1.4 ± 0.3 | Ratio (α-/β-) of kcat/KM (E. coli PheRS [9]): 8.06 ± 5.63 | kcat (min^−1) or RSA (^32P-ATP formed min^−1 enzyme μM^−1) (E. coli PheRS [9]; RSA, 25° C., pH 7.0): 59.1 ± 7.1 ^32P-ATP formed min^−1 enzyme μM^−1

N[C@@H](CCC(=O)O)C(=O)O [α-Glu, Glutamic Acid]
Ratio (α/β) of KM (E. coli GluRS [10]): 0.94 ± 0.60 | Ratio (α/β) of kcat (E. coli GluRS [10]): 61.2 ± 9.1 | Ratio (α/β) of kcat/KM (E. coli GluRS [10]): 82.78 ± 68.2 | krev (apparent rate of deacylation) (E. coli GluRS [11]; deacylation of aminoacyl-tRNA, GluRS 5.0 μM, 25° C.): 0.32 ± 0.14 min⁻¹ | Ratio (α/β) of krev (E. coli GluRS [11]; deacylation, GluRS): 0.73 ± 0.42 | Ratio (α-/β-) of KM (E. coli GluRS [12]): 0.35 ± 0.27 | Ratio (α-/β-) of RSA (E. coli GluRS [12]): 31.6 ± 6.4 | Ratio (α-/β-) of kcat/KM (E. coli GluRS [12]): 89.0 ± 70^ | kcat (min^−1) or RSA (^32P-ATP formed min^−1 enzyme μM^−1) (E. coli GluRS [12]; RSA, 25° C., pH 7.0): 1349 ± 206 ^32P-ATP formed min^−1 enzyme μM^−1

CSCCC(N)CC(=O)O (stereo not drawn) [β-Met, β^3-methionine]
Km (E. coli MetRS [1]; adenylation): 33.4 ± 22 µM | kcat (min^−1) or RSA (^32P-ATP formed min^−1 enzyme μM^−1) (E. coli MetRS [1]; adenylation): 310 ± 47 ^32P-ATP formed min^−1 enzyme μM^−1 | Km (E. coli MetRS [2]; aminoacylation): 609 ± 243 µM | kcat (E. coli MetRS [2]; aminoacylation, 2 μM tRNA): 0.0035 ± 0.0005 s⁻¹ | krev (apparent rate of deacylation) (E. coli MetRS [3]): 4.0 ± 1.8 min⁻¹
